40 molecules from PubChem BioAssay AID2202558 (NIEHS Division of Translational Toxicology (DTT)) can be followed below.

SMILES strings stand for the structures. Inconclusive results are not listed. The source made the active and inactive calls. The rule behind the calls is not given here. *1 amine or outer side, *2 acyl side, *3 side chain or, on linkers, in order; H or OH if unused. Where a SMILES comes first, the peptide text is derived from it. Bridges are numbered along the chain shown (N, C = ends). Roman numbers before positions name the chains, in order. [ ]: non-standard residue; d: D form. Actinocin(9to1) = Cc1c2oc3c(C)ccc(C(=O)[*:1])c3nc-2c(C(=O)[*:2])c(N)c1=O; NMeV = CN[C@H](C(=O)O)C(C)C; Sar = CNCC(=O)O

The test system of the data set is mouse/rat in vivo micronucleus assay, summary call. Put plainly: In vivo micronucleus assay summary data. An excerpt: The erythrocyte micronucleus test examines the ability of substances to cause chromosome damage in developing red blood cells inside bone marrow. A micronucleus (literally, "little nucleus") is a biomarker of structural chromosome damage (e.g., breaks) and changes in chromosome number (e.g., chromosome loss). If a chromosome is broken or fails to migrate properly with other chromosomes during cell division, the broken piece or lost chromosome will form a small (micro) nucleus of its own in one of the two daughter cells produced. Detection of chromosomal damage is important because it has been linked to birth defects, infertility, and certain diseases, including cancer.
The micronucleus test is performed in rapidly dividing cell populations, and bone marrow is a site of rapid blood cell division. Both bone marrow and peripheral blood samples can be examined for the presence of micronuclei in red blood cells.
Animals are treated with a test substance once or daily over a period of time, and the frequency of micronucleated cells is determined 24-48 hours after the final treatment, depending on the source of the cells (bone marrow or blood) that are examined and the treatment regimen.
The test subjects are rodents (rats or mice) that are exposed to the test substance, usually by oral gavage or injection. Typically, one to three daily treatments of the test substance are administered over a range of doses; the highest dose tested is near the maximum tolerated dose. Groups of negative and positive control animals are included for each test. Bone marrow samples are obtained from all animals 24 hours after the last treatment, and red blood cells are examined for the presence of micronuclei.
B. Peripheral Blood Tests
Micronucleus tests are performed on male and female rodents that are exposed to the test substance orally, dermally, or by inhalation in subchronic (e.g., 28 or 90 days) or short term (e.g., 48-72 hours) toxicity studies. 24 to 48 hours after the final exposure, peripheral blood samples are obtained and red blood cells are examined for the presence of micronuclei. Samples may be examined using standard slide scoring procedures or automated flow cytometric approaches. Since 2007, NTP has routinely relied on flow cytometry to evaluate the frequency of micronucleated cells in peripheral blood.
Peripheral blood micronucleus assays are typically integrated into all NTP toxicity studies, and they also lend themselves to serial monitoring of micronucleus frequencies over time, since blood samples can be obtained without the need to sacrifice the animals.
Blood or bone marrow samples from treated animals are compared to samples from untreated animals. With the slide-based approach for data acquisition, 1000-2000 cells were scored per animal. Using flow cytometric procedures to evaluate blood samples, 20,000 immature red blood cells and around one million mature red blood cells are examined per animal, resulting in a marked increase in the ability to detect small changes in the frequency of micronucleated red blood cells. The data is analyzed using statistical methods to determine if there is a significant increase in the frequency of cells containing micronuclei. Both dose-related responses and the magnitude of response for each independent dose group are considered during the evaluation of the data. For a positive test, both a significant dose response (trend) and at least one significant dose group are required. If only one of these measures is present, the test is determined to be questionable. The absence of either condition results in a negative test. The final conclusions for micronucleus tests are determined by considering the results of statistical analyses, reproducibility of any observed effects, and the magnitude of the effects. Ultimately, both the biological significance as well as statistical significance is considered when reaching a final conclusion.
[…]

`C=CC(=O)OCC(CO)(COC(=O)C=C)COC(=O)C=C`: the outcome was “active; positive”.

`CC(=O)C(C)=O`: the outcome is “inactive; negative”.

On to `O=C1OC(c2ccc(O)cc2)(c2ccc(O)cc2)c2ccccc21`, for which the outcome was “active; positive”.

In the case of `CCCCCCc1ccc(O)cc1O`, the outcome is “active; positive”.

In the case of `O=C1c2cccc(O)c2C(=O)c2c(O)cccc21`, the outcome was “inactive; negative”.

As for `CC(C)(C)c1ccc(O)c(O)c1`, the outcome is “inactive; negative”.

Turning to `Cn1c(=O)c2[nH]cnc2n(C)c1=O`, the outcome is “active; positive”.

Consider `Nc1cccc(Cl)c1`, for which the outcome is “inactive; negative”.

With `CCCCOCCO`, the outcome is “inactive; negative”.

As for `Cc1cn([C@H]2C=C[C@@H](CO)O2)c(=O)[nH]c1=O`, the outcome is “active; positive”.

As for `N[C@@H](Cc1ccc(N(CCCl)CCCl)cc1)C(=O)O`, the outcome was “active; positive”.

Take `c1ccccc1`: the outcome was “active; positive”.

`O=S1(=O)CCCC1`: the outcome was “inactive; negative”.

Turning to `ClCC(Cl)(Cl)Cl`, the outcome is “active; positive”.

As to `Nc1ccc(Cl)cc1`, the outcome is “active; positive”.

Consider `Nc1ccccc1`, for which the outcome is “active; positive”.

Regarding `CCCC[N+]1(C)CCCC1`, the outcome was “active; negative”.

Consider `O=C(O)c1cc(N=Nc2ccc(S(=O)(=O)Nc3ccccn3)cc2)ccc1O`, for which the outcome was “active; positive”.

Turning to `COc1ccc2nc(N)sc2c1`, the outcome was “active; positive”.

As for `C=CCc1cc(OC)c2c(c1)OCO2`, the outcome is “active; negative”.

Regarding `CC(O)COC(C)(C)C` (stereo not given), the outcome was “active; weakly positive”.

Consider `C=CC(=O)CC`, for which the outcome is “inactive; negative”.

Turning to `C[C@]12CC[C@@H]3c4ccc(O)cc4CC[C@H]3[C@@H]1CC[C@@H]2O`, the outcome is “inactive; negative”.

On to `CS(=O)(=O)OC[C@H](O)[C@@H](O)COS(C)(=O)=O`, for which the outcome was “active; positive”.

As for `CN(C)CCC(c1ccc(Cl)cc1)c1ccccn1` (stereo not given), the outcome was “inactive; negative”.

Take `OC(O)C(Cl)(Cl)Cl`: the outcome was “active; positive”.

As for `NC(=O)NO`, the outcome was “active; positive”.

With `O=C1c2ccccc2C(=O)c2ccccc21`, the outcome is “active; positive”.

As to `Cc1cccc(Nc2cc(Cl)nc(SCC(=O)O)n2)c1C`, the outcome was “inactive; negative”.

In the case of `C(=NC1CCCCC1)=NC1CCCCC1`, the outcome is “active; weakly positive”.

As to `C=C(C#N)C(=O)OCC`, the outcome was “inactive; negative”.

Take `ClC(Cl)C(Cl)Cl`: the outcome was “active; positive”.

Consider `Cc1cc(O)c2c(c1)C(=O)c1cc(O)cc(O)c1C2=O`, for which the outcome was “active; positive”.

Consider `Cc1ccc([N+](=O)[O-])cc1`, for which the outcome is “inactive; negative”.

In the case of `Cc1c2oc3c(C)ccc(C(=O)N[C@@H]4C(=O)N[C@H](C(C)C)C(=O)N5CCC[C@H]5C(=O)N(C)CC(=O)N(C)[C@@H](C(C)C)C(=O)O[C@@H]4C)c3nc-2c(C(=O)N[C@@H]2C(=O)N[C@H](C(C)C)C(=O)N3CCC[C@H]3C(=O)N(C)CC(=O)N(C)[C@@H](C(C)C)C(=O)O[C@@H]2C)c(N)c1=O` (I: T[dV]P[Sar][NMeV] / II: T[dV]P[Sar][NMeV]; ester I:1-I:C, II:1-II:C; linker I:N-II:N via Actinocin(9to1)), the outcome was “active; positive”.

In the case of `CCCCCC=CC=CC=O`, the outcome is “active; equivocal”.

Turning to `CCC(=O)C(C)=O`, the outcome is “inactive; negative”.

In the case of `Cc1cn([C@H]2C[C@H](N=[N+]=[N-])[C@@H](CO)O2)c(=O)[nH]c1=O`, the outcome was “active; positive”.

Turning to `Clc1ccc(N=Nc2ccc(Cl)c(Cl)c2)cc1Cl`, the outcome was “active; positive”.

In the case of `Nc1ncnc2c1ncn2[C@H]1CC[C@@H](CO)O1`, the outcome is “active; positive”.
